For one assay, the target named is T1, adenosine A2 receptor (Rattus norvegicus, UniProt P30543).
T1 construct: tissue Charles River (animals); host or cells: striatal membranes of young male rats (C-D strain)
Kind of assay: A2 receptor affinity: displacement of [3H]NECA binding in rat brain striatum membranes. Conditions: Table 1. Here is the method:
See R. R. Bruns, et al., Characterization of the A-2Adenosine Receptor Labeled by [3H]NECA in Rat Striatal Membranes, Mol. Pharmacol., 29, 331-346 (1986). Young male rats (C-D strain), obtained from Charles River, were killed by decapitation and the brain was removed. Membranes for ligand binding were isolated from rat brain striatum. The tissue was homogenized in 20 vol ice-cold 50 mM Tris-HC1 buffer (pH 7.7) using a polytron (setting for 6 to 20 seconds). The homogenate was centrifuged at 50,000×g for 10 minutes at 4° C. The pellet was again homogenized in a polytron in 20 vol of buffer, and centrifuged as before. The pellet was finally resuspended in 40 vol of 50 mM Tris-HC1 (pH 7.7) per gram of original wet weight of tissue.
Incubations were carried out at 25° C. for 60 minutes. Each tube was filtered through GF/B glass fiber filters using a vacuum. The filters were rinsed two times with 5 ml of the ice-cold buffer. […] The filters were counted by liquid scintillation spectrometry.
Specific binding of [^3 H]NECA was measured as the excess over blanks run in the presence of 100 μM 2-chloroadenosine. Total membrane-bound radioactivity was about 2.5% of that added to the test tubes. […] Specific binding to membranes was about 50% of the total bound.
A general note: Displacement assays read how much labelled ligand stays bound in the presence of the test substance.

Assay [1] has as its target T2, adenosine A1 receptor (Rattus norvegicus, UniProt P25099).
T2 sequence (P25099 1-326): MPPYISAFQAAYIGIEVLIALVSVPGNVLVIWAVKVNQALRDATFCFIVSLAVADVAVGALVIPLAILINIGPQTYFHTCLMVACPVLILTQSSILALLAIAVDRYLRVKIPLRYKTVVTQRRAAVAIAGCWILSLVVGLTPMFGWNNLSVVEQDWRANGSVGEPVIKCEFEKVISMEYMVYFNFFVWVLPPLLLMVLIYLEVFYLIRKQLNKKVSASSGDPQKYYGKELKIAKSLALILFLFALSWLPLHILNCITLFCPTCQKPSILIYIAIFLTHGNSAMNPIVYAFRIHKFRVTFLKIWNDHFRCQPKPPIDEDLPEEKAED

In the next assay the test system is rats. The assay can be described thus: Water maze learning (scopolamine-induced impairment). The class given is in vivo, rat. Conditions: for effect on scopolamine-induced learning impairment: water maze, summary statement; for reversal of scopolamine-induced impairment: scopolamine 1.2 mg/kg. The source says:
In the water maze spatial learning model, rats are required to use distal spatial cues around a circular water tank to navigate to a hidden platform.
Rats were trained in a 120 -cm diameter water-filled tank to locate a hidden platform submerged just below the surface of the water. The location of the platform remained constant, but for each trial, the animal was required to swim from one of three different starting locations around the edge of the tank. There were no proximal cues in the tank, so the animal had to use a spatial mapping strategy using the distal cues around the room to navigate to the hidden platform. A computerized video tracking system allowed automated acquisition of the data. The animals were given 12 successive training trials during the single training day, using the methods of O. Buresova, et al., Differential Effects Of Cholinergic Blockade On Performance Of Rats In The Water Tank Navigation Task And In A Radial Water Maze, Behavioral Neuroscience, 100, 476-482 (1986). […] After the animal found or was placed on the platform, it was allowed to stay there for 30 seconds. The next trial commenced immediately following the 30 second stay on the platform. Latency to locate the platform was recorded for each trial.
Separate treatment groups of five animals each were run in each experiment. The VEH--VEH groups received vehicle (distilled water plus Tween) i.p. 40 minutes prior to the first trial and vehicle i.p. 20 min. prior to the first trial. The VEH-SCOP groups received vehicle i.p. at 40 minutes and scopolamine HBr i.p. at 20 minutes. The MDL-SCOP groups received (R)-1,3-dipropyl-8-(1-phenylpropyl)-xanthine or 3,7-dihydro-8[(R)-1-methyl-2-phenylethyl]1,3-dipropyl-1H-purine-2,6-dione i.p. at 40 minutes and scopolamine HBr i.p. at 20 minutes.
The latency scores for each animal were averaged into four blocks of three trials each (one trial from each starting location). A one-way ANOVA comparing the treatment groups was computed on the scores for each trial block. If the overall ANOVA was statistically significant, comparisons between individual treatment groups were made with Fisher's PLSD test.

For the next assay, the system named is hippocampal CA1 neurons. The assay can be described thus: Hippocampal long-term potentiation, in vitro slice (CA1 population spike). The class given is cell-based, male Sprague-Dawley rats. The settings on record: for LTP stabilized level following tetanus / time course of LTP following tetanus: primed burst tetanus; for population spike before and after induction of LTP: hippocampal CA1 neurons. The protocol:
Slices were prepared from male Sprague-Dawley rats. […] Briefly, the hippocampus was rapidly and gently dissected over ice. 400 μ Sections were made with a […] tissue chopper and incubated on the interface of 34° C. […] A recording electrode was placed in the CA1 region of the hippocampus and a stimulating electrode was positioned in the stratum radiatum of the CA3 region of this same slice. […] The signal form the CA1 cell body layer was amplified, filtered (1 Hz-4 KHz), and monitored on an oscilloscope. The evoked waveform was also digitized using a Computerscope A/D board (RC Electronics, Inc., Santa Barbara, Calif.) and stored for analysis using Neuroscope software (Levin and Associates, Denver, Colo.) running on an IBM-AT. In order to insure the viability of the slice, "minimal viability criteria" were established. […] Only preparations that met these three criteria were used. Twenty or more control population spikes were obtained to establish a baseline (at least 10 minutes). In most slices concentrated drug solutions were then diluted into the media for a 20 minute period to establish effects on the baseline population spike. […] One 100 μsec pulse was followed by 4 similar pulses 170, 180, 190, 200 msec later. Drug superfusion was continuous throughout the experiment. […] The compounds were dissolved in DMSO and diluted 1:400 into the perfusion media. […] Each pop spike waveform was digitized, stored, and analyzed by the Neuroscope software. Pop spike amplitude was determined for each waveform and these amplitudes were normalized to pre-tetanus levels. Results were expressed as percent change from this control level and plotted vs. time.

Assay [2] has as its system animal models of learning and memory. Conditions: G. Schingnitz et al. 1991; cited from earlier work.
In assay [3] the test system is Type III phosphodiesterase. The assay can be described thus: Type III phosphodiesterase activity. The class given is biochemical.
Assay [4] deals with Type IV phosphodiesterase. Kind of assay: Type IV phosphodiesterase activity. The assay is classed as biochemical.
The test system of the next assay is A1 receptor. Kind of assay: A1 receptor mediated decrease in heart rate produced by adenosine in the anesthetized guinea pig. The class given is in vivo.
The test system of assay [5] is isolated guinea pig trachea. The assay can be described thus: Isolated guinea pig trachea, contraction produced by N6-cyclohexyl-adenosine. The class given is cell-based.
Assay [6] has as its target T2, adenosine A1 receptor. Kind of assay: biochemical.
Assay [7] deals with T2, adenosine A1 receptor. Kind of assay: A1 receptor affinity: displacement of [3H]cyclohexyladenosine binding in rat brain membranes. Conditions: Table 1; ratio of A2 Ki to A1 Ki (selectivity).
Assay [8] has as its target T2, adenosine A1 receptor. Further details: Male Sprague-Dawley rats were sacrificed by decapitation and the membranes were isolated from whole animal brains; from tissue; host or cells: whole brain membranes of male Sprague-Dawley rats. Conditions: Dudley et al., 1992; Secrest et al.; cited from earlier work.

Consider 12 molecules from patent US5840729A (priority 1995, dated 1998).

Each structure is given as a SMILES string. Where two headings read alike, the source gives them in different places.

T1 sequence (P30543 whole entry): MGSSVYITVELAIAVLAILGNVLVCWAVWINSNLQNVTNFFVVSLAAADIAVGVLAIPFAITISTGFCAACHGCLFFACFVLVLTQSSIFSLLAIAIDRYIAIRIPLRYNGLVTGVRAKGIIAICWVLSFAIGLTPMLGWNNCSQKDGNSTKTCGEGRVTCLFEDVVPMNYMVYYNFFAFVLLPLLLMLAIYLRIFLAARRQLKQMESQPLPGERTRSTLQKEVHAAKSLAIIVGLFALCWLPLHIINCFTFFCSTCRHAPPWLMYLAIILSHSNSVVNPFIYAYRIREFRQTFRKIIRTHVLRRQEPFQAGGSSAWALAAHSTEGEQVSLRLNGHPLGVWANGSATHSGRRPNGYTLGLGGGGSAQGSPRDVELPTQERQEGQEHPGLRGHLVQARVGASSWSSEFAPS

The molecule `CCCn1c(=O)c2[nH]c(C3Cc4ccccc4C3)nc2n(CCC)c1=O` (racemic) [3,7-Dihydro-8-(2-indanyl)-1,3-dipropyl-1H-purine-2,6-dione] had an inhibition constant Ki at adenosine A2 receptor of 8.35 µM. This counts as single-digit micromolar.

On to `CCCn1c(=O)c2nc(C(C)c3ccccc3)[nH]c2n(CCC)c1=O` (racemic) [3,7-dihydro-8-(1-phenylethyl)-1,3-dipropyl-1H-purine-2,6-dione], for which, at adenosine A2 receptor, the Ki turned out to be 4.9 µM.

On adenosine A2 receptor, `CCCn1c(=O)c2nc(C(CC)Cc3ccccc3)[nH]c2n(CCC)c1=O` (racemic) [3,7-dihydro-8-[1-(phenylmethyl)propyl]-1,3-dipropyl-1H-purine-2,6-dione] gave an inhibition constant Ki of 1.23 µM.

Turning to `CCCn1c(=O)c2[nH]c(C(CC)c3ccccc3)nc2n(CCC)c1=O` (racemic) [3,7-dihydro-8-[(±)-phenylpropyl]-1,3-dipropyl-1H-purine-2,6-dione], at adenosine A1 receptor [1], the A2/A1 was found to be 20.

At adenosine A2 receptor, `CCCn1c(=O)c2nc(C(CO)Cc3ccccc3)[nH]c2n(CCC)c1=O` (racemic) [3,7-dihydro-8-[l-(hydroxymethyl)-2-phenylethyl]-1,3-dipropyl-1H-purine-2,6-dione] yielded an inhibition constant Ki of 12.8 µM.

`CCCn1c(=O)c2[nH]c(C3CCC(=O)C3)nc2n(CCC)c1=O` (racemic) [KFM-19, reference compound]: the “effect on scopolamine-induced learning impairment” value with rats is given as “significantly antagonized”. The “synaptic transmission in the hippocampal slice” value (“synaptic transmission” below) in the assay with hippocampal CA1 neurons is “enhanced synaptic transmission”. Further, the “activity in other animal models of learning and memory” value in assay [2] is given as “reported to have activity”.

Consider `CCCn1c(=O)c2[nH]c([C@H](C)Cc3ccccc3)nc2n(CCC)c1=O` [3,7-Dihydro-8-[(R)-1-methyl-2-phenylethyl]-1,3-dipropyl-1H-purine-2,6-dione], for which, in assay [3], the “effect on Type III phosphodiesterase activity” value is reported as “little effect”. In assay [4], the “effect on Type IV phosphodiesterase activity” value is recorded as “little effect”. The “reversal of A1 receptor mediated decrease in heart rate produced by adenosine” value in the assay with A1 receptor is given as “completely reversed”. In addition, in assay [5], the “effect on contraction produced by N6-cyclohexyl-adenosine” value is “very little effect”. For the same molecule, the “difference from VEH-VEH group (latency)” value with rats (25 mg/kg i.p. plus scopolamine […]) is reported as “did not differ significantly from the VEH--VEH group”. The “reversal of scopolamine-induced impairment of water maze learning” value in the assay on rats (25 mg/kg i.p., scopolamine […]) is “partially reversed”. The “effect on scopolamine-induced learning impairment” value with rats is listed as “significantly antagonized”. For the same molecule, in the assay on hippocampal CA1 neurons, the “synaptic transmission” value is reported as “enhanced synaptic transmission”; the “population spike before and after induction of LTP” value was “increased the basal population spike before and after induction of LTP”; the “time course of LTP following tetanus” value is “rose sharply and remained stable throughout the observation period”. In addition, the “LTP stabilized level following tetanus” value with hippocampal CA1 neurons (5 μM) is listed as 216%.

Take `CCCn1c(=O)c2nc([C@H](C)c3ccccc3)[nH]c2n(CCC)c1=O` [3,7-Dihydro-8-[(R)-1-phenylethyl]-1,3-dipropyl-1H-purine-2,6-dione]: affinity on adenosine A2 receptor was put at a Ki of 4.22 µM. In other words, the single-digit micromolar range.

For `CCCn1c(=O)c2nc([C@@H](C)c3ccccc3)[nH]c2n(CCC)c1=O` [3,7-Dihydro-8-[(S)-1-phenylethyl]-1,3-dipropyl-1H-purine-2,6-dione], the Ki at adenosine A2 receptor turned out to be 12.9 µM.

`CCCn1c(=O)c2[nH]c([C@@H](CC)c3ccccc3)nc2n(CCC)c1=O` [3,7-Dihydro-8-[(S)-1-phenylpropyl]1,3-dipropyl-1H-purine-2,6-dione]: the inhibition constant (Ki) came to 0.848 µM on adenosine A2 receptor and 0.0607 µM on adenosine A1 receptor [6]. Also, at adenosine A1 receptor [1], the A2/A1 is given as 14.

Turning to `CCCn1c(=O)c2[nH]c([C@H](CC)c3ccccc3)nc2n(CCC)c1=O` [3,7-dihydro-8-[(R)-1-phenylpropyl]1,3-dipropyl-1H-purine-2,6-dione], affinity on adenosine A2 receptor was put at a Ki of 3.51 µM. Further, the “difference from VEH-SCOP group (latency), block 3” value with rats (5 mg/kg i.p. plus scopolamine 1.2 mg/kg, p<0.05) is on record as “differed from the VEH-SCOP group on block 3 (p<0.05)”. For the same molecule, the “reversal of scopolamine-induced impairment” value in the assay with rats (5 mg/kg i.p.) is on record as “reversed the scopolamine-induced impairment”. In addition, the “difference from VEH-SCOP group (latency), blocks 2 and 3” value in the assay with rats (25 mg/kg i.p. plus scopolamine 1.2 mg/kg) is “differed from the VEH-SCOP group on blocks 2 and 3”. Moreover, the “reversal of scopolamine-induced impairment” value with rats (25 mg/kg i.p.) is recorded as “reversed the scopolamine-induced impairment”. For the same molecule, the “difference from VEH-VEH group (latency)” value in the assay on rats (5 and 25 mg/kg i.p. plus scopolamine 1.2 mg/kg) is “did not differ significantly from the VEH--VEH group”. Also, the “effect on scopolamine-induced learning impairment” value in the assay on rats is reported as “significantly antagonized”. In the assay on hippocampal CA1 neurons, the “synaptic transmission” value is “enhanced synaptic transmission”; the “population spike before and after induction of LTP” value was “increased the basal population spike before and after induction of LTP”; the “time course of LTP following tetanus” value is “rose sharply and remained stable throughout the observation period”. Moreover, the “LTP stabilized level following tetanus” value in the assay with hippocampal CA1 neurons (2.5 μm) was 270%. The molecule also displayed a Ki at adenosine A1 receptor [1] of 0.0232 µM. Further, the A2/A1 at adenosine A1 receptor [7] worked out at 153. Besides, the “A1 antagonist potency and selectivity” value at adenosine A1 receptor [8] is “potent and selective A1 antagonists”.

As to `CN1[C@@H]2C[C@@H](OC(=O)[C@H](CO)c3ccccc3)C[C@H]1[C@@H]1O[C@@H]12` [scopolamine, reference compound], the “VEH-SCOP group versus VEH-VEH group (latency)” value in the assay with rats (scopolamine 1.2 mg/kg i.p., p<0.05) is reported as “differed significantly from the VEH--VEH group (p<0.05)”. In the assay with rats (scopolamine, dose-dependent), the “impairment of acquisition of the water maze task” value was “dose-dependently impairs acquisition of the water maze task”.

As a reminder, the Ki is a dissociation constant, usually derived from enzyme kinetics or from competition with a known ligand.
